# Read-outs that look alike come from different tables or passages of the source.
# Columns and labels:
# Type in all cases: in vivo
# [1] = tested on: Alopecurus myosuroides (ALOMY); assay: Glasshouse assay for herbicidal activity, pre-/post-emergence (percentage phytotoxicity); conditions: Alopecurus myosuroides, Rate 250 g/ha, 100%=total damage, 0%=no damage
# Procedure, shortened: (§1)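 Percentage phytotoxicity was assessed visually, 100% meaning total plant damage and 0% none, at 20 days after application for pre-emergence and 15 days for post-emergence. Plants were potted in standard soil and treated after 1 day or about 12 days of growth.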
# Avena fatua (AVEFA) = assay: as above; conditions: Avena fatua, Rate 250 g/ha, 100%=total damage, 0%=no damage
# Procedure, shortened: as §1
# [2] = tested on: Echinochloa crus-galli (ECHCG); assay: as above; conditions: Echinochloa crus-galli, Rate 250 g/ha, 100%=total damage, 0%=no damage
# Procedure, shortened: as §1
# Lolium perenne (LOLPE) = assay: as above; conditions: Lolium perenne, Rate 250 g/ha, 100%=total damage, 0%=no damage
# Procedure, shortened: as §1
# wheat = assay: Post-emergence herbicidal activity against cereal crops (wheat) +/- safener, crop selectivity; conditions: 100%=total damage to plant, 0%=no damage; for Post-emergence herbicidal activity against wheat (percentage phytotoxicity), +CQC: 250 g/ha, plus safener cloquintocet-mexyl (CQC) applied at 50 g/ha; for percent phytotoxicity (crop damage) to wheat at 250 g/ha: Triticum aestivum, 360 h, without safener, read-out: Post-emergence herbicidal activity against wheat (percentage phytotoxicity), Wheat - CQC
# Procedure: Seeds of a variety of monocotyledonous and dicotyledonous test plants are sown in standard soil in pots. The plants are cultivated for one day (for pre-emergence) or for about 12 days (for post-emergence) under controlled conditions in a glasshouse (warm climate species at 24/18° C., cool climate species at 20/16° C., both at day/night; 16 hours light; 65% humidity). The test plants are then grown on, in a glasshouse (greenhouse) under controlled conditions (warm climate species at 24/18° C., cool climate species at 20/16° C., both at day/night; 16 hours light; 65% humidity) and are watered twice daily. 15 days after application of the test herbicide (15DAA) (for post-emergence), and 20 days after application of the test herbicide (20DAA) (for pre-emergence), the test plants are evaluated visually, and an assessed percentage phytotoxicity score is given for each herbicidal application on each plant species (with 100%=total damage to plant; 0%=no damage to plant).
# [3] = 360 h, post-emergence, visual assessment 15 DAA, read-out: Post-emergence herbicidal activity (percentage phytotoxicity), ALOMY POST
# [4] = 480 h, pre-emergence, visual assessment 20 DAA, read-out: Pre-emergence herbicidal activity (percentage phytotoxicity), ALOMY PRE
# [5] = post-emergence, 360 h, post-emergence, visual assessment 15 DAA, read-out: Post-emergence herbicidal activity (percentage phytotoxicity), AVEFA POST
# [6] = pre-emergence, 480 h, pre-emergence, visual assessment 20 DAA, read-out: Pre-emergence herbicidal activity (percentage phytotoxicity), AVEFA PRE
# [7] = post-emergence, 360 h, post-emergence, visual assessment 15 DAA, read-out: Post-emergence herbicidal activity (percentage phytotoxicity), ECHCG POST
# [8] = pre-emergence, 480 h, pre-emergence, visual assessment 20 DAA, read-out: Pre-emergence herbicidal activity (percentage phytotoxicity), ECHCG PRE
# [9] = post-emergence, 360 h, post-emergence, visual assessment 15 DAA, read-out: Post-emergence herbicidal activity (percentage phytotoxicity), LOLPE POST
# [10] = pre-emergence, 480 h, pre-emergence, visual assessment 20 DAA, read-out: Pre-emergence herbicidal activity (percentage phytotoxicity), LOLPE PRE
SMILES,"pest or weed control at 250 g/ha [1, 3]","pest or weed control at 250 g/ha [1, 4]",pest or weed control at 250 g/ha (Avena fatua (AVEFA); [5]),pest or weed control at 250 g/ha (Avena fatua (AVEFA); [6]),"pest or weed control at 250 g/ha [2, 7]","pest or weed control at 250 g/ha [2, 8]",pest or weed control at 250 g/ha (Lolium perenne (LOLPE); [9]),pest or weed control at 250 g/ha (Lolium perenne (LOLPE); [10]),"Post-emergence herbicidal activity against wheat (percentage phytotoxicity), +CQC (wheat)",percent phytotoxicity (crop damage) to wheat at 250 g/ha (wheat)
Cc1cc(C)c(C2C(=O)CC(CCNC(=S)Nc3ccccc3F)C2=O)c(C)c1 (stereo not drawn) [Compound A88],0%,0%,0%,0%,0%,40%,60%,40%,0%,0%
Cc1cc(C)c(C2C(=O)CC(CCNC(=O)N(C)Cc3ccccc3)C2=O)c(C)c1 (stereo not drawn) [Compound A10],80%,0%,80%,0%,90%,0%,90%,0%,20%,70%
Cc1cc(-c2ncc(Cl)cc2F)cc(C)c1C1C(=O)CC(CCNC(=O)NC(C)(C)C)C1=O.Cl (stereo not drawn) [Compound A29],100%,90%,100%,100%,100%,90%,100%,100%,70%,90%
Cc1cc(C)c(C2C(=O)CC(CCNC(=O)NC(=O)c3c(F)cc(Cl)cc3F)C2=O)c(C)c1 (stereo not drawn) [Compound A64],90%,100%,90%,80%,90%,80%,100%,80%,80%,90%
Cc1cc(-n2cc(Cl)cn2)cc(C)c1C1C(=O)CC(CCNC(=O)NC(C)(C)C)C1=O (stereo not drawn) [Compound A21],90%,90%,100%,90%,100%,100%,90%,80%,70%,90%
Cc1cc(C)c(C2C(=O)CC(CCNC(=O)NC(=O)c3ccc(Cl)c(F)c3)C2=O)c(C)c1 (stereo not drawn) [Compound A58],40%,0%,10%,0%,80%,0%,90%,0%,20%,80%
Cc1cc(C)c(C2C(=O)CC(CCNC(=O)NC(=O)c3ccc(C(F)(F)F)c(F)c3)C2=O)c(C)c1 (stereo not drawn) [Compound A61],40%,20%,0%,30%,70%,30%,70%,40%,40%,70%
Cc1cc(C)c(C2C(=O)CC(CCNS(=O)(=O)c3ccc(Cl)c(Cl)c3)C2=O)c(C)c1 (stereo not drawn) [Compound A78],40%,60%,80%,0%,30%,20%,60%,70%,0%,0%
Cc1cc(-c2ncc(Cl)cc2F)cc(C)c1C1C(=O)CC(CCNC(=O)Nc2ccccn2)C1=O (stereo not drawn) [Compound A19],90%,70%,100%,90%,100%,80%,100%,80%,80%,80%
Cc1cc(C)c(C2C(=O)CC(CCNC(=S)Nc3ccc(F)cc3)C2=O)c(C)c1 (stereo not drawn) [Compound A89],0%,0%,40%,0%,0%,30%,0%,40%,0%,10%
Cc1cc(C)c(C2C(=O)CC(CCNC(=O)NC(=O)c3ccccc3Cl)C2=O)c(C)c1 (stereo not drawn) [Compound A49],100%,90%,100%,80%,100%,100%,100%,90%,90%,90%
CC#Cc1cc(C)c(C2C(=O)CC(CCNC(=O)NC(C)(C)C)C2=O)c(C)c1 (stereo not drawn) [Compound A23],90%,100%,100%,100%,100%,100%,90%,100%,80%,90%
Cc1cc(C)c(C2C(=O)CC(CCNC(=O)Nc3ncccn3)C2=O)c(C)c1 (stereo not drawn) [Compound A30],90%,80%,80%,80%,90%,60%,80%,90%,40%,70%
Cc1cc(C)c(C2C(=O)CC(CCNC(=O)NC(=O)c3ccccc3)C2=O)c(C)c1 (stereo not drawn) [Compound A46],70%,30%,90%,30%,100%,60%,100%,70%,70%,80%
Cc1cc(C)c(C2C(=O)CC(CCNC(=O)Nc3cc(C(C)(C)C)on3)C2=O)c(C)c1 (stereo not drawn) [Compound A15],60%,70%,50%,50%,30%,70%,70%,70%,30%,40%

# — patent US10301295B2, “Herbicidal compounds” (Syngenta Participations AG, priority 2014, dated 2019)
